Reference: ChEMBL document CHEMBL1146759, “Chemo- and stereoselective synthesis of benzocycloheptene and 1-benzoxepin derivatives as alpha-sympathomimetic and anorexigenic agents” (Bioorg Med Chem Lett, 2004)
Calls of active or inactive are those of the source. The rule behind the calls is not given here.

Columns and labels:
[1] = Effect on change in blood pressure in mice; format: functional
[2] = Acute toxicity when administered intraperitoneally in mice; format: organism-based; details: mouse, in vivo, ip; read-out: ALD50
[3] = tested on: Mus musculus; test: Effective dose for anorexigenic activity when administered to mice intraperitoneally; no effect; format: functional, organism-based
[4] = tested on: Mus musculus; test: Protection against amphetamine toxicity in mice when administered percutaneously; no effect; format: functional, organism-based
[5] = Effect on change in blood pressure in […]; no effect; format: functional, organism-based
[6] = tested on: Mus musculus; test: Effective dose for anorexigenic activity when administered to mice intraperitoneally; format: functional; details: ip
[7] = tested on: Mus musculus; test: Protection against amphetamine toxicity in mice when administered percutaneously; format: functional

Compound: COc1ccc2c(c1)[C@H](O)[C@@H](N)CCO2
- Change in blood pressure [1]: 40 mmHg
- LD50 [2]: 150 mg/kg
- ED50 [3]: inactive

Compound: COc1ccc2c(c1)[C@H](O)[C@H](N)CCO2
- Change in blood pressure [1]: 20 mmHg
- LD50 [2]: 150 mg/kg
- ED50 [3]: inactive

Compound: Cc1cc2c(cc1C)[C@H](O)[C@H](N)CCC2
- LD50 [2]: 150 mg/kg
- ED50 [4]: inactive
- Change in blood pressure [5]: inactive

Compound: Cc1ccc2c(c1)[C@H](O)[C@@H](N)CCO2
- Change in blood pressure [1]: 38 mmHg
- LD50 [2]: 150 mg/kg
- ED50 [3]: inactive

Compound: N[C@@H]1CCCc2cc(O)c(O)cc2[C@@H]1O
- LD50 [2]: 150 mg/kg
- ED50 [4]: inactive

Compound: N[C@H]1CCOc2ccccc2[C@@H]1O
- Change in blood pressure [1]: 32 mmHg
- LD50 [2]: 500 mg/kg
- ED50 [6]: 55 mg/kg

Compound: N[C@@H]1CCCc2ccccc2[C@@H]1O
- LD50 [2]: 150 mg/kg
- ED50 [7]: 73 mg/kg
- Change in blood pressure [5]: inactive

Compound: N[C@@H]1CCOc2ccccc2[C@@H]1O
- Change in blood pressure [1]: 44 mmHg
- LD50 [2]: 800 mg/kg
- ED50 [6]: 75 mg/kg

Compound: Cc1ccc2c(c1)[C@H](O)[C@H](N)CCO2
- Change in blood pressure [1]: 10 mmHg
- LD50 [2]: 300 mg/kg
- ED50 [3]: inactive

Compound: COc1cc2c(cc1OC)[C@H](O)[C@H](N)CCC2
- LD50 [2]: 150 mg/kg
- ED50 [4]: inactive
- Change in blood pressure [5]: inactive

Compound: N[C@H]1CCCc2ccccc2[C@@H]1O
- LD50 [2]: 150 mg/kg
- ED50 [4]: inactive
- Change in blood pressure [5]: inactive
